According to patent publication US11352551B2, “Proppant coatings containing antimicrobial agents” (Agienic, Inc., priority 2012, dated 2022):

How the values were obtained:
[1] = room temperature; cited from earlier work
[2] = tested on: Desulfovibrio vulgaris (ATCC 29579); assay: Activity against sulfate reducing bacteria (3-tube most probable number method); type: cell-based; details: 10 ppm (copper or gluteraldehyde); one hour; start 2×10^7 mpn/ml; SRB2 media

| Compound | Water solubility [1] | log10 reduction of D. vulgaris [2] |
| --- | --- | --- |
| [Cu][Br] [CuBr, Copper(I) bromide] | 0.011 mg/mL |  |
| [Cl][Cu][Cl] [CuCl2, copper (II) chloride] |  | less than 3 log10 |
| [Cl-].[Cl-].[Zn+2] [ZnCl2, zinc chloride] | 4300 mg/mL |  |
| O=CCCCC=O [gluteraldehyde] |  | greater than 4.23 log10 |
